Legend:
Assay in all cases: relative viability (nuclei count vs DMSO), 5 days (fraction); higher = more cells survive
Trametinib + Palbociclib = compound: CC(=O)Nc1cccc(-n2c(=O)n(C3CC3)c(=O)c3c(Nc4ccc(I)cc4F)n(C)c(=O)c(C)c32)c1 [Trametinib] + CC(=O)c1c(C)c2cnc(Nc3ccc(N4CCNCC4)cn3)nc2n(C2CCCC2)c1=O [Palbociclib] (partner 0.5 µM)
Summary of the method: (§1)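 Values are medians from duplicate plates. Each reflects relative viability, defined as the nuclei count of treated wells over that of vehicle wells. Lung cancer cell lines in 1536-well plates were pin-tool dosed one day after seeding with one drug alone or with a fixed anchor-drug dose plus five library-drug doses (not always all listed) in √10 steps, then fixed, stained and imaged at 4× after 5 days.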

Trametinib + Pictilisib = compound: CC(=O)Nc1cccc(-n2c(=O)n(C3CC3)c(=O)c3c(Nc4ccc(I)cc4F)n(C)c(=O)c(C)c32)c1 [Trametinib] + CS(=O)(=O)N1CCN(Cc2cc3nc(-c4cccc5[nH]ncc45)nc(N4CCOCC4)c3s2)CC1 [Pictilisib] (partner 1 µM)
Summary of the method: as §1

Trametinib + Pemetrexed = compound: CC(=O)Nc1cccc(-n2c(=O)n(C3CC3)c(=O)c3c(Nc4ccc(I)cc4F)n(C)c(=O)c(C)c32)c1 [Trametinib] + Nc1nc2[nH]cc(CCc3ccc(C(=O)N[C@@H](CCC(=O)O)C(=O)O)cc3)c2c(=O)[nH]1 [Pemetrexed] (partner 0.2 µM)
Summary of the method: as §1

[1] = compound: CN1C=C(C2=CC=CC=C21)/C=C\3/C4=C(C=CC=N4)NC3=O + CC(=O)c1c(C)c2cnc(Nc3ccc(N4CCNCC4)cn3)nc2n(C2CCCC2)c1=O [Palbociclib] (partner 0.5 µM)
Summary of the method: as §1

## UMC-11
Trametinib + Palbociclib; first compound 0.0025 µM
  relative viability: 0.32
Trametinib + Palbociclib; first compound 0.007906 µM
  relative viability: 0.333
Trametinib + Palbociclib; first compound 0.25 µM
  relative viability: 0.312
Trametinib + Pictilisib; first compound 0.0025 µM
  relative viability: 0.662
Trametinib + Pictilisib; first compound 0.007906 µM
  relative viability: 0.785
Trametinib + Pictilisib; first compound 0.025 µM
  relative viability: 0.297
Trametinib + Pictilisib; first compound 0.07906 µM
  relative viability: 0.709
Trametinib + Pictilisib; first compound 0.25 µM
  relative viability: 0.663
Trametinib + Pemetrexed; first compound 0.0025 µM
  relative viability: 0.804
Trametinib + Pemetrexed; first compound 0.007906 µM
  relative viability: 0.741
Trametinib + Pemetrexed; first compound 0.07906 µM
  relative viability: 0.719
Trametinib + Pemetrexed; first compound 0.25 µM
  relative viability: 0.701
[1]; first compound 0.02 µM
  relative viability: 0.3
[1]; first compound 0.06325 µM
  relative viability: 0.318
[1]; first compound 0.2 µM
  relative viability: 0.358
[1]; first compound 0.6325 µM
  relative viability: 0.344
[1]; first compound 2 µM
  relative viability: 0.332
